From patent publication US10047051B2, “Substituted pyridines and method of use” (AbbVie S.á{acute over (.)}r.l., priority 2015, dated 2018)

Key:
CFTR G551D mutant = target: T1, CFTR G551D mutant (Homo sapiens, UniProt P13569, G551D); experiment: YFP-halide influx assay for the CFTR-G551D mutation (HEK293 cells); type: cell-based; settings: forskolin 10.67 μM
T1 construct: expressed in transfected cells; host or cells: HEK293 cells, reverse transfection with plasmids
Method in brief: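 HEK293 cells reverse-transfected with CFTR G551D and halide-sensitive YFP (H148Q/I152L/F47L), expressed 24 h at 37 °C. YFP fluorescence quenching recorded for 7 s after I⁻ injection. Response = 1−F/F0; EC50 derived from 1−F/F0 vs compound concentration.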

CFTR ΔF508 mutant = target: T2, CFTR ΔF508 mutant (Homo sapiens, UniProt P13569, DEL508-508); experiment: YFP-halide influx assay for the CFTR-ΔF508 mutation (CFBE41o- cells); type: cell-based; settings: forskolin 10.67 μM; for EC50: from (1−F/F0) vs concentration plot
T2 construct: expressed in transfected cells; host or cells: CFBE41o- cells, adenoviral transduction
Method in brief: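 CFBE41o- cells transduced with adenovirus expressing CFTR ΔF508 and halide-sensitive YFP H148Q/I152L/F47L, then held 24 h at 27° C or with a CFTR modulator 24 h at 37° C. Iodide-induced quench recorded 2 min; EC50 from (1−F/F0) at 36 s versus concentration.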

T1 sequence (P13569 whole entry G551D): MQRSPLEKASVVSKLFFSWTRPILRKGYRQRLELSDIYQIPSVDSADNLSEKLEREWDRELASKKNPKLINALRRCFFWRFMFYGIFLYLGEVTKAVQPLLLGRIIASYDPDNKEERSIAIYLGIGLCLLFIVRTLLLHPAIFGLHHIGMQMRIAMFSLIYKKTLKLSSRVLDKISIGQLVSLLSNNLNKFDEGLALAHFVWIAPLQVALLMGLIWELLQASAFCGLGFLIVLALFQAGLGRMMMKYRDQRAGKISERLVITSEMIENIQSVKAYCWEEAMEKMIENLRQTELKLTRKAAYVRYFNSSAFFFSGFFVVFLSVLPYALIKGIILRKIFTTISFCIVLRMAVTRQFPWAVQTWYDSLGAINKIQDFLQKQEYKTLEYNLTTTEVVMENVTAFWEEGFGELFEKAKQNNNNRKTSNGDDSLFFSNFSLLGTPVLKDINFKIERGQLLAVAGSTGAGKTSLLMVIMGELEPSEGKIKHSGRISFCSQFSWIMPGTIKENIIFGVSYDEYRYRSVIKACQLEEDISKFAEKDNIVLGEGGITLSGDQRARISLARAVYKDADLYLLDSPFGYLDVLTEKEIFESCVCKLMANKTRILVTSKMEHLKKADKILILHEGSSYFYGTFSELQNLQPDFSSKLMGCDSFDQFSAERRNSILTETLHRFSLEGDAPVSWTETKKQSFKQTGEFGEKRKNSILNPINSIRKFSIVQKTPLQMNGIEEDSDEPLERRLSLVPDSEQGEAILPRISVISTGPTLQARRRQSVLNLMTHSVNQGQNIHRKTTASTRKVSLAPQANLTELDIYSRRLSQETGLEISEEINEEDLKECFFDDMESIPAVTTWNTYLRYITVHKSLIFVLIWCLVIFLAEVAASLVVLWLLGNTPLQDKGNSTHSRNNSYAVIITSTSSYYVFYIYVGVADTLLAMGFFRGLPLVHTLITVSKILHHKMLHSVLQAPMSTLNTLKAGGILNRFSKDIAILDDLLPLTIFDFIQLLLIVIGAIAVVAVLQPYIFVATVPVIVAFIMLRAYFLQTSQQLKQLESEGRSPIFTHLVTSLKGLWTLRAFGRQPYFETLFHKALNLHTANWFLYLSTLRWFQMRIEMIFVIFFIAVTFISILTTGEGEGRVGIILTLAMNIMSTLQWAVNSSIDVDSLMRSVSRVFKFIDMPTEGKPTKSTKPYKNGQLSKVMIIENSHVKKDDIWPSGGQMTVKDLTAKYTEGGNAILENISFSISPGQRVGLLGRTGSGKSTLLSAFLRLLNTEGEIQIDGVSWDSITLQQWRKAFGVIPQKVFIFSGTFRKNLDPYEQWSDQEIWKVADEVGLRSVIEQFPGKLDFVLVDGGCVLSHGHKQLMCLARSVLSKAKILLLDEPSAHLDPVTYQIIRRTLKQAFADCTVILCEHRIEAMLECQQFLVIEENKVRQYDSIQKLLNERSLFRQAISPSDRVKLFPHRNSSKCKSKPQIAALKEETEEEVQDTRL
T2 sequence (P13569 with tags, fused parts or gaps DEL508-508): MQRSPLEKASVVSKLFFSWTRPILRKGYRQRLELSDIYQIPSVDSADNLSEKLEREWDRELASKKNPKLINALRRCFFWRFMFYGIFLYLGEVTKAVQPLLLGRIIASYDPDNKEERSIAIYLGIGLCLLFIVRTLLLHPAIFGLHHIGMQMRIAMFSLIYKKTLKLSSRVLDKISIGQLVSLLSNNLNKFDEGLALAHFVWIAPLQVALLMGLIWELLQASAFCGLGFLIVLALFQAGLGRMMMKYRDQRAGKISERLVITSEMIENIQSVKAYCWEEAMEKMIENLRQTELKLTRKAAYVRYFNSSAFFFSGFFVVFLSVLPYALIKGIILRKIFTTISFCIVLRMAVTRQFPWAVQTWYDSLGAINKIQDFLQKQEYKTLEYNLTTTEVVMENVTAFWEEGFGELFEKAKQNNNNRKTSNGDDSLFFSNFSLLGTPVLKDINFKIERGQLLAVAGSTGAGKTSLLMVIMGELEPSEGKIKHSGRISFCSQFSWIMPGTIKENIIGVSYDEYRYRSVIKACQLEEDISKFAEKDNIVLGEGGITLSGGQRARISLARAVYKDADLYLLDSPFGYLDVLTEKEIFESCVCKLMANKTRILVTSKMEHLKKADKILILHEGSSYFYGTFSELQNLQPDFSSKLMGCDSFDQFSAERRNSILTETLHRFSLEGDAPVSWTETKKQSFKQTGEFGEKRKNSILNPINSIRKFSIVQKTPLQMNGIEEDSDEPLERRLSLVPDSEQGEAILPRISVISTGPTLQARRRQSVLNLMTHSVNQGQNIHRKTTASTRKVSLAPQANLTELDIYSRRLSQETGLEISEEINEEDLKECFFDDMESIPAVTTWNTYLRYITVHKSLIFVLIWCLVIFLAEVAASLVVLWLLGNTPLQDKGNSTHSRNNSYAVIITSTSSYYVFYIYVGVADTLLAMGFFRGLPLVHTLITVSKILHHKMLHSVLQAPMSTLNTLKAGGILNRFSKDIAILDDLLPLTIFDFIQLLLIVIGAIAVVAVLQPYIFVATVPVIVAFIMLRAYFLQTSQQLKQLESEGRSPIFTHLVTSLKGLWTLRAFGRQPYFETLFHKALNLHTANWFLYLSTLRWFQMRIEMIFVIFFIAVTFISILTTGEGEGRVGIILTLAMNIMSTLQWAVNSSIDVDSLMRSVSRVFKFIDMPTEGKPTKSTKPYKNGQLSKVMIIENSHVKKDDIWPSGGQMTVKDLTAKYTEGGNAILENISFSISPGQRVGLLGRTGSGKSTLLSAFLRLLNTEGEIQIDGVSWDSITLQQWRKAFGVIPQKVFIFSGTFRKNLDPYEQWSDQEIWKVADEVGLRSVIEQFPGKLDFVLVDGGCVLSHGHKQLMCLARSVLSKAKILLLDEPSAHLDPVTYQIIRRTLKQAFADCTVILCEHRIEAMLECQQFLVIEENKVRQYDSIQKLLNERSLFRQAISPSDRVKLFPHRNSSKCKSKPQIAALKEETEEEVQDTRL

| % Activation (CFTR G551D mutant) | EC50 (CFTR G551D mutant) | % Activation (CFTR ΔF508 mutant) | EC50 (CFTR ΔF508 mutant) | SMILES |
| --- | --- | --- | --- | --- |
| 60.4% | 795 nM | 100.6% | 109 nM | Nc1cc(S(=O)(=O)c2ccc(OC(F)(F)F)cc2)cnc1C(=O)NCCc1ccco1 [Compound 141, 3-amino-N-[2-(furan-2-yl)ethyl]-5-{[4-(trifluoromethoxy)phenyl]sulfonyl}pyridine-2-carboxamide] |
| 44.7% | 399 nM | 97.9% | 11.9 nM | CC[C@@H](CO)NC(=O)c1ncc(S(=O)(=O)c2ccc(OC(F)(F)F)cc2)cc1N [Compound 142, 3-amino-N-[(2S)-1-hydroxybutan-2-yl]-5-{[4-(trifluoromethoxy)phenyl]sulfonyl}pyridine-2-carboxamide] |
| 80.6% | 2300 nM | 91.4% | 136 nM | Nc1cc(S(=O)(=O)c2ccc(OC(F)(F)F)cc2)cnc1C(=O)NCC1CCCOC1 (stereo not shown) [Compound 143, 3-amino-N-(tetrahydro-2H-pyran-3-ylmethyl)-5-{[4-(trifluoromethoxy)phenyl]sulfonyl}pyridine-2-carboxamide] |
| 50.6% | 1120 nM | 92.6% | 76.1 nM | Nc1cc(S(=O)(=O)c2ccc(OC(F)(F)F)cc2)cnc1C(=O)N[C@H]1CCOC1 [Compound 144, 3-amino-N-[(3S)-tetrahydrofuran-3-yl]-5-{[4-(trifluoromethoxy)phenyl]sulfonyl}pyridine-2-carboxamide] |
| 53.9% | 836 nM | 98.8% | 205 nM | Nc1cc(S(=O)(=O)c2ccc(OC(F)(F)F)cc2)cnc1C(=O)N[C@@H]1CCOc2ccccc21 [Compound 145, 3-amino-N-[(4R)-3,4-dihydro-2H-chromen-4-yl]-5-{[4-(trifluoromethoxy)phenyl]sulfonyl}pyridine-2-carboxamide] |
| 58.4% | 3110 nM | 88.4% | 91.4 nM | Nc1cc(S(=O)(=O)c2ccc(OC(F)(F)F)cc2)cnc1C(=O)NC1CCOCC1 [Compound 146, 3-amino-N-(tetrahydro-2H-pyran-4-yl)-5-{[4-(trifluoromethoxy)phenyl]sulfonyl}pyridine-2-carboxamide] |
| 69.0% | 1280 nM | 105.5% | 40.9 nM | Nc1cc(S(=O)(=O)c2ccc(OC(F)(F)F)cc2)cnc1C(=O)NCCC1OCCO1 [Compound 147, 3-amino-N-[2-(1,3-dioxolan-2-yl)ethyl]-5-{[4-(trifluoromethoxy)phenyl]sulfonyl}pyridine-2-carboxamide] |
| 60.2% | 510 nM | 88.8% | 42.5 nM | CC(C)[C@@H](CO)NC(=O)c1ncc(S(=O)(=O)c2ccc(OC(F)(F)F)cc2)cc1N [Compound 148, 3-amino-N-[(2S)-1-hydroxy-3-methylbutan-2-yl]-5-{[4-(trifluoromethoxy)phenyl]sulfonyl}pyridine-2-carboxamide] |
| 42.7% | > 1670 nM | 91.2% | 179 nM | Nc1cc(S(=O)(=O)c2ccc(OC(F)(F)F)cc2)cnc1C(=O)NC1COC2(CCCCC2)C1 (stereo not shown) [Compound 149, 3-amino-N-(1-oxaspiro[4.5]dec-3-yl)-5-{[4-(trifluoromethoxy)phenyl]sulfonyl}pyridine-2-carboxamide] |
| 49.7% | 1070 nM | 116.0% | 355 nM | Nc1cc(S(=O)(=O)c2ccc(OC(F)(F)F)cc2)cnc1C(=O)NC1COC2(CCCC2)C1 (stereo not shown) [Compound 150, 3-amino-N-(1-oxaspiro[4.4]non-3-yl)-5-{[4-(trifluoromethoxy)phenyl]sulfonyl}pyridine-2-carboxamide] |
| 3.0% | > 5000 nM | 16.9% | > 1000 nM | Nc1cc(S(=O)(=O)c2ccc(OC(F)(F)F)cc2)cnc1C(=O)NC1COC1 [Compound 151, 3-amino-N-(oxetan-3-yl)-5-{[4-(trifluoromethoxy)phenyl]sulfonyl}pyridine-2-carboxamide] |
| 60.2% | 1130 nM | 93.3% | 119 nM | Nc1cc(S(=O)(=O)c2ccc(OC(F)(F)F)cc2)cnc1C(=O)NCCC1CC1 [Compound 152, 3-amino-N-(2-cyclopropylethyl)-5-{[4-(trifluoromethoxy)phenyl]sulfonyl}pyridine-2-carboxamide] |
| 47.6% | 760 nM | 105.0% | 75.4 nM | Nc1cc(S(=O)(=O)c2ccc(OC(F)(F)F)cc2)cnc1C(=O)NCC1CC(F)(F)C1 [Compound 153, 3-amino-N-[(3,3-difluorocyclobutyl)methyl]-5-{[4-(trifluoromethoxy)phenyl]sulfonyl}pyridine-2-carboxamide] |
| 80.2% | 987 nM | 108.0% | 81.2 nM | Nc1cc(S(=O)(=O)c2ccc(OC(F)(F)F)cc2)cnc1C(=O)NCC1CC1 [Compound 155, 3-amino-N-(cyclopropylmethyl)-5-{[4-(trifluoromethoxy)phenyl]sulfonyl}pyridine-2-carboxamide] |

Second part, the molecule before the results:

| SMILES | % Activation (CFTR G551D mutant) | EC50 (CFTR G551D mutant) | % Activation (CFTR ΔF508 mutant) | EC50 (CFTR ΔF508 mutant) |
| --- | --- | --- | --- | --- |
| Nc1cc(S(=O)(=O)c2ccc(OC(F)(F)F)cc2)cnc1C(=O)NCC1CCOCC1 [Compound 129, 3-amino-N-(tetrahydro-2H-pyran-4-ylmethyl)-5-{[4-(trifluoromethoxy)phenyl]sulfonyl}pyridine-2-carboxamide] | 25.9% | > 10000 nM | 74.9% | 180 nM |
| Nc1cc(S(=O)(=O)c2ccc(C(F)(F)F)cc2)cnc1C(=O)NCC(O)COCC1CC1 (stereo not shown) [Compound 131, 3-amino-N-[3-(cyclopropylmethoxy)-2-hydroxypropyl]-5-{[4-(trifluoromethyl)phenyl]sulfonyl}pyridine-2-carboxamide] | 68.6% | 817 nM | 110.2% | 12.8 nM |
| Nc1cc(S(=O)(=O)c2ccc(C(F)(F)F)cc2F)cnc1C(=O)NCC(O)COCC1CC1 (stereo not shown) [Compound 132, 3-amino-N-[3-(cyclopropylmethoxy)-2-hydroxypropyl]-5-{[2-fluoro-4-(trifluoromethyl)phenyl]sulfonyl}pyridine-2-carboxamide] | 79.2% | 395 nM | 103.5% | 5.1 nM |
| CC(C)OCC(O)CNC(=O)c1ncc(S(=O)(=O)c2ccc(C(F)(F)F)cc2F)cc1N (stereo not shown) [Compound 133, 3-amino-5-{[2-fluoro-4-(trifluoromethyl)phenyl]sulfonyl}-N-[2-hydroxy-3-(propan-2-yloxy)propyl]pyridine-2-carboxamide] | 84.2% | 253 nM | 105.9% | 3.7 nM |
| CC1(C)CN(C(=O)c2ncc(S(=O)(=O)c3ccc(OC(F)(F)F)cc3F)cc2N)C1 [Compound 134, (3-amino-5-{[2-fluoro-4-(trifluoromethoxy)phenyl]sulfonyl}pyridin-2-yl)(3,3-dimethylazetidin-1-yl)methanone] | 76.8% | 1130 nM | 101.6% | 43.5 nM |
| CC(C)NC(=O)CNC(=O)c1ncc(S(=O)(=O)c2ccc(OC(F)(F)F)cc2F)cc1N [Compound 135, 3-amino-5-{[2-fluoro-4-(trifluoromethoxy)phenyl]sulfonyl}-N-[2-oxo-2-(propan-2-ylamino)ethyl]pyridine-2-carboxamide] | 43.5% | 5770 nM | 108.7% | 8.5 nM |
| CN(Cc1ccc(F)c(F)c1)S(=O)(=O)c1cnc(C(=O)NCC(O)C(F)(F)F)c(N)c1 (stereo not shown) [Compound 136, 3-amino-5-[(3,4-difluorobenzyl)(methyl)sulfamoyl]-N-(3,3,3-trifluoro-2-hydroxypropyl)pyridine-2-carboxamide] | 53.4% | > 3330 nM | 113.7% | 2.9 nM |
| CN(Cc1ccc(F)cc1F)S(=O)(=O)c1cnc(C(=O)NCC(O)C(F)(F)F)c(N)c1 (stereo not shown) [Compound 137, 3-amino-5-[(2,4-difluorobenzyl)(methyl)sulfamoyl]-N-(3,3,3-trifluoro-2-hydroxypropyl)pyridine-2-carboxamide] | 69.6% | 420 nM | 110.7% | 3.7 nM |
| COc1ccc(CN(C)S(=O)(=O)c2cnc(C(=O)NCC(O)C(F)(F)F)c(N)c2)cc1 (stereo not shown) [Compound 138, 3-amino-5-[(4-methoxybenzyl)(methyl)sulfamoyl]-N-(3,3,3-trifluoro-2-hydroxypropyl)pyridine-2-carboxamide] | 49.6% | 684 nM | 94.5% | 17.9 nM |
| Nc1cc(S(=O)(=O)N2CCOCC2)cnc1C(=O)NCC(O)C(F)(F)F (stereo not shown) [Compound 139, 3-amino-5-(morpholin-4-ylsulfonyl)-N-(3,3,3-trifluoro-2-hydroxypropyl)pyridine-2-carboxamide] | 40.6% | 5770 nM | 96.6% | 61.2 nM |
| Nc1cc(S(=O)(=O)c2ccc(OC(F)(F)F)cc2)cnc1C(=O)N[C@@H]1CCCOC1 [Compound 140, 3-amino-N-[(3R)-tetrahydro-2H-pyran-3-yl]-5-{[4-(trifluoromethoxy)phenyl]sulfonyl}pyridine-2-carboxamide] | 39.9% | > 10000 nM | 97.7% | 51 nM |
